According to US7699995B2, “Water treatment method” (priority 2006, dated 2010):

What was measured:
[1] = Stability in buffered water at various pH and temperatures (HPLC); type: physicochemical
Experimental: Biocides were added to buffer solutions and stability was tested at 22° and 50° C. using HPLC to measure biocide concentration at 0 time, 21 days, 43 days, and 88-90 days. Biocide stability was determined in the following buffer solutions: pH2, 0.01M HCl; pH6, 0.1M KH2PO4; pH8, 0.025M borate; pH10, 0.025M borate; pH12, 0.05M Na2HPO4. Biocide concentrations tested were 100 ppm MI, 200 ppm BIT, 44 ppm CMI.

Alcaligenes faecalis #93 = assay: MIC at pH 7.1 or pH 9.0, half strength TSB; type: cell-based; conditions: three days
Experimental: (§1) Minimum inhibitory concentration (MIC) studies were conducted to determine the lowest level of biocide required to inhibit growth of bacteria and fungi. Tests were conducted in 96-well microtiter plates. Biocides were added to growth media in the plates and serially diluted to obtain a range of concentrations. Tests were conducted in one-half strength trypticase soy broth (TSB; adjusted to pH 7.1 or pH 9.0). Bacteria and fungi were added to samples at 10^6 colony forming units per ml and incubated at 30° C. for three days. MIC values were determined visually on a growth no-growth basis.

[2] = system: Alcaligenes xylosoxydans #95; assay: MIC at pH 7.1 or pH 9.0, half strength TSB; type: cell-based; conditions: three days
Experimental: as §1

Aspergillus niger #128 = assay: MIC at pH 7.1 or pH 9.0, half strength TSB; type: cell-based; conditions: three days
Experimental: as §1

Aspergillus sp. #120 = assay: MIC at pH 7.1 or pH 9.0, half strength TSB; type: cell-based; conditions: three days
Experimental: as §1

[3] = system: Pseudomonas aeruginosa #13; assay: MIC at pH 7.1 or pH 9.0, half strength TSB; type: cell-based; conditions: three days
Experimental: as §1

Pseudomonas diminuta #99 = assay: MIC at pH 7.1 or pH 9.0, half strength TSB; type: cell-based; conditions: three days
Experimental: as §1

[4] = system: Pseudomonas pseudoalcaligenes #15; assay: MIC at pH 7.1 or pH 9.0, half strength TSB; type: cell-based; conditions: three days
Experimental: as §1

Rhodotorula rubra #156 = assay: MIC at pH 7.1 or pH 9.0, half strength TSB; type: cell-based; conditions: three days
Experimental: as §1

Streptomyces sp. #130 = assay: MIC at pH 7.1 or pH 9.0, half strength TSB; type: cell-based; conditions: three days
Experimental: as §1

[5] = system: Mycobacterium chelonae (ATCC 14472); assay: MBC test, transfer from MIC plates to fresh media; type: cell-based; conditions: M. chelonae, no survivors after 2 days in fresh media
Experimental: (§2) Bacterial strains tested included Mycobacterium chelonae (ATCC 14472) and Mycobacterium immunogenum (ATCC 700505). Mycobacterial cultures were grown overnight at 30° C. (M. immunogenum) or 37° C. (M. chelonae), in a rotary shaking bath in Middlebrook […] with Middlebrook enrichment. A 1:20 dilution of the overnight culture was made into the appropriate test media and inoculated to give a final concentration of 10^6 to 10^7 CFU/ml.
(§3) MBC tests were conducted by transferring samples from the MIC test samples into fresh media and observing for growth of the culture. Growth was determined as above. In this test using Biomek 2000 Workstation, 10 μl samples taken from the 96-well MIC plates were placed in […] of fresh growth media to determine the number of surviving organisms for the same gradient of biocide concentrations. These plates were incubated and read in the same fashion as the MIC plates.

[6] = system: Mycobacterium immunogenum (ATCC 700505); assay: MBC test, transfer from MIC plates to fresh media; type: cell-based; conditions: M. immunogenum, no survivors after 2 days in fresh media
Experimental: as §2, §3

[7] = Stability in pH 9 buffer solution at 70° C. (HPLC)
Experimental: pH 9 buffer containing 0.069 M boric acid, 0.017 M citric acid, 0.066 M sodium phosphate was prepared in distilled water. Biocide was dosed into the pH 9 buffer solution and stored at 70° C. in a heat block. The samples were examined for active ingredient concentration at the time points after 5 hours, and 1, 3, 7, 23, 30, 35 and 56 days. Initial biocide doses were 166 ppm MI, 199 ppm BIT and 150 ppm BNPD.
The samples were evaluated for active ingredient concentration via High Pressure Liquid Chromatography. Samples were taken from the heating blocks and allowed to cool to room temperature for 30 minutes. The samples were then diluted 1:20 in deionized water by adding 9.5 ml of deionized water to 0.5 grams of the samples in a 25 ml glass sample vial. The samples were mixed for 15 seconds and transferred to HPLC sample vials for analysis.

O=c1[nH]sc2ccccc12 [BIT, 1,2-benzisothiazolin-3-one, reference compound]
Percent Remaining at: pH 2 ([1]; 22° C., day 0): 100% | Percent Remaining at: pH 6 ([1]; 22° C., day 0): 100% | Percent Remaining at: pH 8 ([1]; 22° C., day 0): 100% | Percent Remaining at: pH 10 ([1]; 22° C., day 0): 100% | Percent Remaining at: pH 12 ([1]; 22° C., day 0): 100% | Percent Remaining at: pH 2 ([1]; 22° C., day 21): 97% | Percent Remaining at: pH 6 ([1]; 22° C., day 21): 100% | Percent Remaining at: pH 8 ([1]; 22° C., day 21): 98% | Percent Remaining at: pH 10 ([1]; 22° C., day 21): 100% | Percent Remaining at: pH 12 ([1]; 22° C., day 21): 69% | Percent Remaining at: pH 2 ([1]; 22° C., day 43): 83% | Percent Remaining at: pH 6 ([1]; 22° C., day 43): 86% | Percent Remaining at: pH 8 ([1]; 22° C., day 43): 77% | Percent Remaining at: pH 10 ([1]; 22° C., day 43): 85% | Percent Remaining at: pH 12 ([1]; 22° C., day 43): 55% | Percent Remaining at: pH 2 ([1]; 22° C., day 88): 95% | Percent Remaining at: pH 6 ([1]; 22° C., day 88): 100% | Percent Remaining at: pH 8 ([1]; 22° C., day 88): 84% | Percent Remaining at: pH 10 ([1]; 22° C., day 88): 96% | Percent Remaining at: pH 12 ([1]; 22° C., day 88): 63% | Percent Remaining at: pH 2 ([1]; 50° C., day 0): 100% | Percent Remaining at: pH 6 ([1]; 50° C., day 0): 100% | Percent Remaining at: pH 8 ([1]; 50° C., day 0): 100% | Percent Remaining at: pH 10 ([1]; 50° C., day 0): 100% | Percent Remaining at: pH 12 ([1]; 50° C., day 0): 100% | Percent Remaining at: pH 2 ([1]; 50° C., day 21): 95% | Percent Remaining at: pH 6 ([1]; 50° C., day 21): 100% | Percent Remaining at: pH 8 ([1]; 50° C., day 21): 94% | Percent Remaining at: pH 10 ([1]; 50° C., day 21): 100% | Percent Remaining at: pH 12 ([1]; 50° C., day 21): 68% | Percent Remaining at: pH 2 ([1]; 50° C., day 43): 80% | Percent Remaining at: pH 6 ([1]; 50° C., day 43): 88% | Percent Remaining at: pH 8 ([1]; 50° C., day 43): 73% | Percent Remaining at: pH 10 ([1]; 50° C., day 43): 81% | Percent Remaining at: pH 12 ([1]; 50° C., day 43): 55% | Percent Remaining at: pH 2 ([1]; 50° C., day 90): 93% | Percent Remaining at: pH 6 ([1]; 50° C., day 90): 100% | Percent Remaining at: pH 8 ([1]; 50° C., day 90): 89% | Percent Remaining at: pH 10 ([1]; 50° C., day 90): 95% | Percent Remaining at: pH 12 ([1]; 50° C., day 90): 68% | Minimum Inhibitory Concentration (Alcaligenes faecalis #93; pH 7.1, 30° C.): <1.6 ppm | Minimum Inhibitory Concentration (Alcaligenes faecalis #93; pH 9.0, 30° C.): 6.3 ppm | Minimum Inhibitory Concentration ([2]; pH 7.1, 30° C.): 6.3 ppm | Minimum Inhibitory Concentration ([2]; pH 9.0, 30° C.): 25 ppm | Minimum Inhibitory Concentration (Aspergillus niger #128; pH 7.1, 30° C.): 50 ppm | Minimum Inhibitory Concentration (Aspergillus niger #128; pH 9.0, 30° C.): 200 ppm | Minimum Inhibitory Concentration (Aspergillus sp. #120; pH 7.1, 30° C.): 50 ppm | Minimum Inhibitory Concentration (Aspergillus sp. #120; pH 9.0, 30° C.): 400 ppm | Minimum Inhibitory Concentration ([3]; pH 7.1, 30° C.): 50 ppm | Minimum Inhibitory Concentration ([3]; pH 9.0, 30° C.): 200 ppm | Minimum Inhibitory Concentration (Pseudomonas diminuta #99; pH 7.1, 30° C.): 3.2 ppm | Minimum Inhibitory Concentration (Pseudomonas diminuta #99; pH 9.0, 30° C.): 12.5 ppm | Minimum Inhibitory Concentration ([4]; pH 7.1, 30° C.): 12.5 ppm | Minimum Inhibitory Concentration ([4]; pH 9.0, 30° C.): 25 ppm | Minimum Inhibitory Concentration (Rhodotorula rubra #156; pH 7.1, 30° C.): <6.3 ppm | Minimum Inhibitory Concentration (Rhodotorula rubra #156; pH 9.0, 30° C.): 100 ppm | Minimum Inhibitory Concentration (Streptomyces sp. #130; pH 7.1, 30° C.): <1.6 ppm | Minimum Inhibitory Concentration (Streptomyces sp. #130; pH 9.0, 30° C.): 3.2 ppm | Minimum Biocidal Concentration [5]: 75 ppm active | Minimum Biocidal Concentration [6]: 188 ppm active | Percent Remaining after: 5 hr ([7]; 5 hr): 98% | Percent Remaining after: 1 day ([7]; 1 day): 97% | Percent Remaining after: 3 day ([7]; 3 day): 94% | Percent Remaining after: 7 day ([7]; 7 day): 92% | Percent Remaining after: 23 day ([7]; 23 day): 86% | Percent Remaining after: 30 day ([7]; 30 day): 71% | Percent Remaining after: 35 day ([7]; 35 day): 63% | Percent Remaining after: 56 day ([7]; 56 day): 68% | loss of active ingredient ([7]; day 56): 32% | Percent Remaining after: 0 ([7]; time 0): 100%
